# Laboratory results taken from ChEMBL document CHEMBL1921670, “Discovery and optimization of indole and 7-azaindoles as Rho kinase (ROCK) inhibitors (part-II)” (Bioorg Med Chem Lett, 2011).
# What was measured:
# [1] = biological target: Rho-associated protein kinase 2 (Homo sapiens, UniProt O75116); test: Inhibition of ROCK2
# [2] = biological target: Rho-associated protein kinase 1 (Homo sapiens, UniProt Q13464); test: Inhibition of ROCK1
# [3] = Inhibition of PKA
# [4] = Half life in human liver microsomes; format: ADME, Microsome
# CYP1A2 = biological target: T1, CYP1A2 (Homo sapiens, UniProt P05177); test: Inhibition of CYP1A2 at 10 uM; format: ADME
# T1 sequence (P05177 whole entry): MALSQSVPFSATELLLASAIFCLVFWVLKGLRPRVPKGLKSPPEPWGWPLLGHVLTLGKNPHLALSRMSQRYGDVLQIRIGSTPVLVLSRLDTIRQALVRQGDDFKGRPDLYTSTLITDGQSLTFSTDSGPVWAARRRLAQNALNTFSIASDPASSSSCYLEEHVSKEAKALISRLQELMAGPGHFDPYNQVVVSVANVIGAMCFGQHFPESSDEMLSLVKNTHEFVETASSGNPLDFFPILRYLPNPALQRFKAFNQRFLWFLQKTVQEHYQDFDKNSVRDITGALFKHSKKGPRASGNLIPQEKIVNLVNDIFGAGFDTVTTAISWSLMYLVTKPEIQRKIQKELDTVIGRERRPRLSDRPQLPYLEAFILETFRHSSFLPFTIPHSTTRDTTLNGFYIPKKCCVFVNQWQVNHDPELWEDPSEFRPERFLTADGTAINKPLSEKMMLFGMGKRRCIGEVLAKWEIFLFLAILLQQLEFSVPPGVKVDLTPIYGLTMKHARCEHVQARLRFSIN
# CYP2C9 = CYP2C9 (Homo sapiens, UniProt P11712); test: Inhibition of CYP2C9 at 10 uM; format: ADME
# CYP2D6 = CYP2D6 (Homo sapiens, UniProt P10635); test: Inhibition of CYP2D6 at 10 uM; format: ADME
# CYP3A4 = CYP3A4 (Homo sapiens, UniProt P08684); test: Inhibition of CYP3A4 at 10 uM; format: ADME
# [5] = Inhibition of myosin light chain bisphosphorylation by cell-based assay
# [6] = Clearance in rat at 1 mg/kg, iv or 2 mg/kg, po; format: ADME, organism-based; details: in vivo
# [7] = Volume of distribution at steady state in rat at 1 mg/kg, iv or 2 mg/kg, po; format: ADME, organism-based; details: in vivo, read-out: Vdss
# [8] = Half life in rat at 1 mg/kg, iv or 2 mg/kg, po; format: ADME, organism-based; details: in vivo
# [9] = Oral bioavailability in rat at 2 mg/kg; format: ADME, organism-based; details: in vivo
# [10] = AUC in rat at 1 mg/kg, iv; format: ADME, organism-based; set-up: dose 1 mg/kg, route intravenous; details: plasma
# Sequence of CYP3A4 (P08684 whole entry): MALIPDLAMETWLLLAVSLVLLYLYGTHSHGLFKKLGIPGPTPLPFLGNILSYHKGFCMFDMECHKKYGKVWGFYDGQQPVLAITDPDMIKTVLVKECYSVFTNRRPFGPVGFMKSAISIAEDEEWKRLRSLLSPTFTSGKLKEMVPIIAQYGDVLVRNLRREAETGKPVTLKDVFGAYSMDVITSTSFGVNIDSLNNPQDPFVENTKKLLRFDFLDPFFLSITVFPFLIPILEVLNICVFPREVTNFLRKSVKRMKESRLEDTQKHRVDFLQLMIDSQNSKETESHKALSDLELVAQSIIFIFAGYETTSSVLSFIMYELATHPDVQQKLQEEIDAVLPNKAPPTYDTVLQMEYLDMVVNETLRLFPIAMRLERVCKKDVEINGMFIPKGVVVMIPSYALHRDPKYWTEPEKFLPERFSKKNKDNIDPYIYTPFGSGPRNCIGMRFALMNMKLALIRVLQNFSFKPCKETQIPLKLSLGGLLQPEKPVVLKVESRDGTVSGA
# Sequence of Rho-associated protein kinase 2 (O75116 whole entry): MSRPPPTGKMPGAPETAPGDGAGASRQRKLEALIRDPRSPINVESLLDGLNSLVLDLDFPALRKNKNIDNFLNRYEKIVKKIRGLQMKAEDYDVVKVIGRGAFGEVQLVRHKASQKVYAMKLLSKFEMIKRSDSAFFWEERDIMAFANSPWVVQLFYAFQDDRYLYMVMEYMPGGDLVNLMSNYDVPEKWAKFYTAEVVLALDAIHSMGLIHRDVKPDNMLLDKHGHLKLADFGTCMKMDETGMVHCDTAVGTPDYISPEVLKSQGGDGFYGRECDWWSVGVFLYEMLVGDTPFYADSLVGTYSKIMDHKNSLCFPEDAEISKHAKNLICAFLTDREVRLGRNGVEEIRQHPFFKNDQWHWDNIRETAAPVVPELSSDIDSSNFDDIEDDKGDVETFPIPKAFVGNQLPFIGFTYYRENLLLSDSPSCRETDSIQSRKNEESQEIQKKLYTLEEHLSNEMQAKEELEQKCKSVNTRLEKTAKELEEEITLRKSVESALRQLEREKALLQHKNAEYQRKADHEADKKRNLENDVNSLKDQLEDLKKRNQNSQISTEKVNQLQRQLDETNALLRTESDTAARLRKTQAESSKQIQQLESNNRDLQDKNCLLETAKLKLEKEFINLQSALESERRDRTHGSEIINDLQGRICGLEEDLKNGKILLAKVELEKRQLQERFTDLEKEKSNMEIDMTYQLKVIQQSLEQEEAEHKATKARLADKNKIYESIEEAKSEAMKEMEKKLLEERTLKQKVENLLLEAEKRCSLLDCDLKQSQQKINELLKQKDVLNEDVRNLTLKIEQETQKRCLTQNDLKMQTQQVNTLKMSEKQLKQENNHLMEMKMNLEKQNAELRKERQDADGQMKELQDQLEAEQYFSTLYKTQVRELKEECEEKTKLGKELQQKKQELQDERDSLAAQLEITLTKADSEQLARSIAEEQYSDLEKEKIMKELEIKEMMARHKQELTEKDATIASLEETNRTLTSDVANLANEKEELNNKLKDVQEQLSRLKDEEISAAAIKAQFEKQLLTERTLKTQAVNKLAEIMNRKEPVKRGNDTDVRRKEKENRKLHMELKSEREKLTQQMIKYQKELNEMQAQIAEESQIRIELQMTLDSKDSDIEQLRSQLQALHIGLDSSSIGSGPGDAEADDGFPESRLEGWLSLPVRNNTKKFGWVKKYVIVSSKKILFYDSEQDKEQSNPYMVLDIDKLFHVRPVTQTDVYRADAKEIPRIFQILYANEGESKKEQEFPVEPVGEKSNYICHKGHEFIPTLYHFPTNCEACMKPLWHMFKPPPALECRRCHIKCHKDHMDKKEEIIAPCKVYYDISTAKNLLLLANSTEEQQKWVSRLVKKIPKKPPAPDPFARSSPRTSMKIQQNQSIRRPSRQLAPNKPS
# Sequence of Rho-associated protein kinase 1 (Q13464 whole entry): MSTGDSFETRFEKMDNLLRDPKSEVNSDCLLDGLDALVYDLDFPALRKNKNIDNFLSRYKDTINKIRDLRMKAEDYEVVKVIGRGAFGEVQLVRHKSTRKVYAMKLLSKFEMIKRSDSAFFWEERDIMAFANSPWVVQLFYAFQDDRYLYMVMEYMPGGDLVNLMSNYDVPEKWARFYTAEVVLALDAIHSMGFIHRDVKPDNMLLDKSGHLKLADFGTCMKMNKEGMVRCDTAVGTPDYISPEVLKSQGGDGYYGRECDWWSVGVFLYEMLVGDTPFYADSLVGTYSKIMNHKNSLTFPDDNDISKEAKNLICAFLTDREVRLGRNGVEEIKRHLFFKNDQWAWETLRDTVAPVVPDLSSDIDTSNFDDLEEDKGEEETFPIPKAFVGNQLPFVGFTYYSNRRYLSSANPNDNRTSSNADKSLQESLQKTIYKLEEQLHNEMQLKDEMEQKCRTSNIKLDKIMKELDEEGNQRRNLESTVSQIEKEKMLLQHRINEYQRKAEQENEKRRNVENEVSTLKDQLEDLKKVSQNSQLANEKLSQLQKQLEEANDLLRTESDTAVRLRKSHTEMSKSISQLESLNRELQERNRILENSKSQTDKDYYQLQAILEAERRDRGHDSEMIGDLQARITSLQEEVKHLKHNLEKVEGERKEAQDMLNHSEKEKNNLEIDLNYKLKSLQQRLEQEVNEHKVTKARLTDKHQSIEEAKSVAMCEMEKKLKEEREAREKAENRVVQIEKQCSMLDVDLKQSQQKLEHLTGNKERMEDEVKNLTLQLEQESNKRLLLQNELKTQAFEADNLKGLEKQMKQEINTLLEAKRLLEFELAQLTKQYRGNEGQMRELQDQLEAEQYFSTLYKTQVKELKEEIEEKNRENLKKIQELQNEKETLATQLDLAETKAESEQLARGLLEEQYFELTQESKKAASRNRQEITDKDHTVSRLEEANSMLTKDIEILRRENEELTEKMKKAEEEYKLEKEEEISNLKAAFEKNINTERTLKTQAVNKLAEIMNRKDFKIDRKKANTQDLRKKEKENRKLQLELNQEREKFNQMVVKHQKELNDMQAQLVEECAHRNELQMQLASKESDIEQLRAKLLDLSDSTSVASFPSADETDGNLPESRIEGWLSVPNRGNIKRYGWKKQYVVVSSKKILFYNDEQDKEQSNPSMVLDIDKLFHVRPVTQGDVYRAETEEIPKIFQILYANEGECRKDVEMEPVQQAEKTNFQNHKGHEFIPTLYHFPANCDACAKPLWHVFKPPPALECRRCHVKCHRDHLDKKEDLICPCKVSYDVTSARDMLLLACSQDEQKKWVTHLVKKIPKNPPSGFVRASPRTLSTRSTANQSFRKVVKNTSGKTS
# Sequence of CYP2D6 (P10635 whole entry): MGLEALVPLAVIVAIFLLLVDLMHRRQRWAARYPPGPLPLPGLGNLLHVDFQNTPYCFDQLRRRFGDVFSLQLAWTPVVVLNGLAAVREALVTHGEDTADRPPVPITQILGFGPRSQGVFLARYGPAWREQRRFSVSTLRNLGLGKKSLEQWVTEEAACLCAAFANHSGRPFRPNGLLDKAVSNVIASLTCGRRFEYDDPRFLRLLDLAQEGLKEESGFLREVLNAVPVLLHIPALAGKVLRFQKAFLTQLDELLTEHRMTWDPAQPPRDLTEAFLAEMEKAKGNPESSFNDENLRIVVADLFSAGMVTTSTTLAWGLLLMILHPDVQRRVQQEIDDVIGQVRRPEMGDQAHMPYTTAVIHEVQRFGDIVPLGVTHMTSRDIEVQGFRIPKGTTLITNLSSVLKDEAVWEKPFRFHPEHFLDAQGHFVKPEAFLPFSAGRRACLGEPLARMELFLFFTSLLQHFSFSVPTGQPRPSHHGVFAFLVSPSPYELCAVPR
# Sequence of CYP2C9 (P11712 whole entry): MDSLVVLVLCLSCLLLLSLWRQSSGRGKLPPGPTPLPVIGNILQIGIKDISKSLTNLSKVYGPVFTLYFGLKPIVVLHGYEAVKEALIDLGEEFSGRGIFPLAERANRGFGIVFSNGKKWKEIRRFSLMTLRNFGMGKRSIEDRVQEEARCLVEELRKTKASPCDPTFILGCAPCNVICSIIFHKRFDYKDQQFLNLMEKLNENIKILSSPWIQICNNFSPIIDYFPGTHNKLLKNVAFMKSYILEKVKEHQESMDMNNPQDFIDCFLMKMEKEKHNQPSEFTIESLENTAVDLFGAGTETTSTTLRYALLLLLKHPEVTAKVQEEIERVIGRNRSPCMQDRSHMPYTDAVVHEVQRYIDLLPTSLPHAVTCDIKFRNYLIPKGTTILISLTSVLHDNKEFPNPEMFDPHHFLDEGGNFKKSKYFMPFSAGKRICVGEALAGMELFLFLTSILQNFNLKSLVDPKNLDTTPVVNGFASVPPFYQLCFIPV
Structure (SMILES),IC50 [1],IC50 [2],IC50 [3],half-life [4],inhibition at 10 µM (CYP1A2),inhibition at 10 µM (CYP2C9),inhibition at 10 µM (CYP2D6),inhibition at 10 µM (CYP3A4),IC50 [5],clearance [6],Vd [7],half-life [8],bioavailability [9],AUC [10]
COc1cccc(CN(CC[N+]2(C)CCCC2)C(=O)c2cc3ccc(-c4cn[nH]c4)nc3n2C)c1,1900 nM,6600 nM,3700 nM,–,–,–,–,–,–,–,–,–,–,–
COc1cccc(CN(CCN(C)C)C(=O)c2cn(CCN3CCCC3)c3cc(-c4cn[nH]c4)ccc23)c1,2800 nM,8900 nM,> 20000 nM,–,–,–,–,–,–,–,–,–,–,–
COc1cccc(CN(CCN2CCCC2)C(=O)c2cc3ccc(-c4cn[nH]c4)nc3n2C)c1,220 nM,1000 nM,2200 nM,–,–,–,–,–,–,–,–,–,–,–
COc1cccc(CNC(=O)c2cc3ccc(-c4cn[nH]c4)cc3n2CCN(C)C)c1,310 nM,710 nM,> 20000 nM,–,–,–,–,–,–,–,–,–,–,–
COc1cccc(CNC(=O)c2cn(CCCO)c3cc(-c4cn[nH]c4)ccc23)c1,1 nM,3 nM,900 nM,21 min,71%,87%,32%,63%,–,–,–,–,–,–
COc1cccc(CNC(=O)c2c[nH]c3nc(-c4cn[nH]c4)ccc23)c1,–,–,8000 nM,–,–,–,–,–,–,–,–,–,–,–
COc1cccc(CNC(=O)c2cc3ccc(-c4cn[nH]c4)nc3n2CC2CC2)c1,150 nM,280 nM,5000 nM,–,–,–,–,–,–,–,–,–,–,–
COc1cccc(CN(CCCN2CCN(C)CC2)C(=O)c2c[nH]c3nc(-c4cn[nH]c4)ccc23)c1,62 nM,260 nM,3700 nM,–,–,–,–,–,–,–,–,–,–,–
COc1cccc(CN(C)C(=O)c2cc3ccc(-c4cn[nH]c4)cc3n2C)c1,200 nM,1100 nM,> 20000 nM,–,–,–,–,–,–,–,–,–,–,–
COc1cccc(CN(CCN2CCCC2)C(=O)c2cc3ccc(-c4cn[nH]c4)nc3[nH]2)c1,18 nM,121 nM,> 20000 nM,21 min,12%,26%,52%,43%,–,–,–,–,–,–
COc1cccc(CN(C)C(=O)c2cc3ccc(-c4cn[nH]c4)cc3n2CCN(C)C)c1,2300 nM,6900 nM,> 20000 nM,–,–,–,–,–,–,–,–,–,–,–
CCN(Cc1cccc(OC)c1)C(=O)c1c[nH]c2nc(-c3cn[nH]c3)ccc12,19 nM,76 nM,5000 nM,–,–,–,–,–,–,–,–,–,–,–
COc1cccc(CNC(=O)c2cc3ccc(-c4cn[nH]c4)cc3n2CCCO)c1,24 nM,88 nM,1800 nM,–,–,–,–,–,–,–,–,–,–,–
COc1cccc(CNC(=O)c2cn(CCN3CCCC3)c3nc(-c4cn[nH]c4)ccc23)c1,8 nM,89 nM,> 20000 nM,21 min,9%,51%,69%,44%,–,114 mL/min/kg,10 L/kg,90 min,0%,0.3 µM·h
COc1cccc(CNC(=O)c2cc3ccc(-c4cn[nH]c4)nc3n2Cc2cccc(OC)c2)c1,4400 nM,> 20000 nM,–,–,–,–,–,–,–,–,–,–,–,–
COc1cccc(CN(CCN2CCCC2)C(=O)c2cc3ccc(-c4cn[nH]c4)cc3[nH]2)c1,11 nM,62 nM,1640 nM,49 min,-2%,65%,78%,59%,206 nM,–,–,–,–,–
COc1cccc(CNC(=O)c2[nH]c3nc(-c4cn[nH]c4)ccc3c2CN2CCOCC2)c1,16 nM,91 nM,6100 nM,4 min,7%,9%,28%,46%,–,–,–,–,–,–

# More lines, main results first:
IC50 [1],IC50 [2],IC50 [3],half-life [4],inhibition at 10 µM (CYP1A2),inhibition at 10 µM (CYP2C9),inhibition at 10 µM (CYP2D6),inhibition at 10 µM (CYP3A4),IC50 [5],Structure (SMILES),clearance [6],Vd [7],half-life [8],bioavailability [9],AUC [10]
8 nM,39 nM,911 nM,1 min,-15%,-26%,60%,34%,–,COc1cccc(CNC(=O)c2[nH]c3nc(-c4cn[nH]c4)ccc3c2CN2CCN(C)CC2)c1,–,–,–,–,–
< 1 nM,8 nM,385 nM,50 min,41%,53%,81%,51%,–,COc1cccc(CNC(=O)c2[nH]c3cc(-c4cn[nH]c4)ccc3c2CN2CCCNCC2)c1,–,–,–,–,–
1 nM,9 nM,2200 nM,8 min,3%,62%,52%,36%,34 nM,COc1cccc(CN(CCN(C)C)C(=O)c2cn(C)c3cc(-c4cn[nH]c4)ccc23)c1,–,–,–,–,–
9 nM,110 nM,> 20000 nM,–,–,–,–,–,–,COc1cccc(CN(C)C(=O)c2cn(CCN(C)C)c3cc(-c4cn[nH]c4)ccc23)c1,–,–,–,–,–
9 nM,34 nM,1500 nM,68 min,18%,27%,48%,19%,–,COc1cccc(CNC(=O)c2[nH]c3cc(-c4cn[nH]c4)ccc3c2CN(C)C)c1,–,–,–,–,–
10 nM,46 nM,1600 nM,–,–,–,–,–,–,COc1cccc(CN(CCCN(C)C)C(=O)c2cc3ccc(-c4cn[nH]c4)cc3[nH]2)c1,–,–,–,–,–
3 nM,37 nM,2800 nM,46 min,-7%,27%,9%,2%,70 nM,COc1cccc(CN(C)C(=O)c2cc3ccc(-c4cn[nH]c4)cc3[nH]2)c1,–,–,–,–,–
5 nM,21 nM,–,10 min,36%,96%,76%,93%,–,COc1cccc(CNC(=O)c2cn(-c3ccccc3)c3cc(-c4cn[nH]c4)ccc23)c1,–,–,–,–,–
1 nM,13 nM,2810 nM,14 min,4%,28%,31%,31%,53 nM,COc1cccc(CN(CCCN(C)C)C(=O)c2cn(C)c3cc(-c4cn[nH]c4)ccc23)c1,–,–,–,–,–
< 1 nM,6 nM,1300 nM,1 min,62%,75%,86%,75%,40 nM,COc1cccc(CNC(=O)c2[nH]c3cc(-c4cn[nH]c4)ccc3c2CN2CCN(C)CC2)c1,–,–,–,–,–
2 nM,19 nM,4300 nM,13 min,70%,94%,50%,38%,–,COc1cccc(CN(C)C(=O)c2c[nH]c3cc(-c4cn[nH]c4)ccc23)c1,–,–,–,–,–
6 nM,30 nM,> 20000 nM,9 min,-5%,91%,25%,56%,–,COc1cccc(CN(C(=O)c2c[nH]c3nc(-c4cn[nH]c4)ccc23)C2CC2)c1,–,–,–,–,–
3 nM,40 nM,18000 nM,8 min,46%,86%,70%,86%,130 nM,COc1cccc(CNC(=O)c2[nH]c3cc(-c4cn[nH]c4)ccc3c2CN2CCOCC2)c1,32 mL/min/kg,2 L/kg,84 min,0%,1.2 µM·h
< 1 nM,< 1 nM,720 nM,13 min,-2%,77%,23%,68%,–,COc1cccc(CNC(=O)c2cn(C)c3nc(-c4cn[nH]c4)ccc23)c1,–,–,–,–,–
< 1 nM,3 nM,680 nM,4 min,23%,93%,58%,70%,17 nM,COc1cccc(CN(C)C(=O)c2cn(C)c3cc(-c4cn[nH]c4)ccc23)c1,–,–,–,–,–
< 1 nM,< 1 nM,87 nM,9 min,23%,93%,53%,87%,4 nM,COc1cccc(CNC(=O)c2cn(C)c3cc(-c4cn[nH]c4)ccc23)c1,–,–,–,–,–
4 nM,27 nM,570 nM,24 min,32%,83%,52%,27%,25 nM,COc1cccc(CN(C)C(=O)c2cc3ccc(-c4cn[nH]c4)nc3[nH]2)c1,–,–,–,–,–
